The text below walks through data of US11602147B2, “Nematode control” (University of Idaho, priority 2017, dated 2023).

Data set [1] can be described thus: pH stability of 4-hydroxybenzyl isothiocyanate in buffered aqueous solutions. The format is physicochemical. Here is the method: Partially purified 4-hydroxybenzyl isothiocyanate was prepared by suspending 500 grams of S. alba seed meal in 2 liters of deionized water and extracting the mixture with 500 milliliters of ethyl acetate for 24 hours. The ethyl acetate extract was separated by decanting the top organic layer after centrifugation, dried with 100 g of anhydrous sodium sulfate overnight, and concentrated under vacuum at laboratory temperature. The crude 4-hydroxybenzyl isothiocyanate extract was further purified by preparative column chromatography on silica gel (500 grams). […] Content of 4-hydroxybenzyl isothiocyanate within the fractions was verified by GC-MS using instrumentation and conditions as described previously. Fractions containing 4-hydroxybenzyl isothiocyanate were combined and concentrated under vacuum at laboratory temperature producing a yellowish, viscous fluid displaying only 4-hydroxybenzyl isothiocyanate and pentane/methylene chloride solvent peaks in the GC chromatogram. No further concentration of 4-hydroxybenzyl isothiocyanate was achieved using vacuum distillation because of its instability.
Actual pH values of the buffers of 3.03, 3.52, 4.02, 4.49, 5.00, 5.46, 5.91, and 6.52 were verified using an Orion model 420A pH meter (Orion Research, Boston). […]

Data set [2] concerns Globodera pallida eggs. Put plainly: Globodera pallida egg hatching assay after 2-week exposure of encysted eggs. The format is in vivo. As to the method: An initial experiment was conducted to determine possible effects of S. alba seed meal on hatch of Globodera pallida eggs. Measuring the percentage egg hatch is a viability indicator and provides an indication of the potential impact from a treatment. In this experiment, Globodera pallida encysted eggs were exposed to S. alba seed meal for 2 weeks in small containers containing a sand:soil mix. The sand:soil mix without seed meal was used as the non-treated control. […] The experiment had two treatments: 1) a non-treated bare soil control; or 2) S. alba seed meal. Each treatment included 5 replicates. Eggs from each of these treatments were exposed to either PRD or SE for 2 weeks, at which time hatched infectious 2nd stage Globodera pallida juveniles (J2) were counted. The objective of this experiment was to determine if 4-hydroxybenzyl alcohol (HBA), the product of enzymatic hydrolysis of the glucosinolate sinalbin contained in S. alba seed meal, could be responsible for the observed enhanced hatch. In an experiment similar to Example 1, encysted eggs were exposed to either HBA, or S. alba seed (yellow mustard) meal. The non-treated eggs were placed in bare soil mix only. After 2 weeks, exposed eggs were placed in hatching assays in either PRD or in soil extract, and hatched J2 were counted. In this experiment, the impact of different application rates of HBA on percent Globodera pallida hatch was investigated (FIG. 13). Again, hatch of the non-treated control was higher in PRD than in soil extract. […] An increase in hatch of approximately 60% occurred with a 1 μmol/ml pre-treatment with HBA prior to PRD exposure.

For data set [3], the system named is wheat. The following applies: effect no longer observed at 69 days post application; cited from earlier work.
For data set [4], the system named is cotton. As to conditions: solutions sprayed directly on vegetative growth; cited from earlier work.
Data set [5] relates to vegetative cover / weeds. As to conditions: cited from earlier work.

Bounds are passed on as bounds.

For orientation: half-life means the time in which the quantity being followed falls by half. Low values mean rapid decline, high ones slow decline.

`Oc1ccc(CN=C=S)cc1` [4-hydroxybenzyl isothiocyanate] had a half-life at 0.1 % v/v (partially purified extract in buffer) in data set [1] (0.1 M sodium citrate/citric acid buffer (aqueous), pH 7.0 (overview text)) of less than 5 min. Besides, the “stability in aqueous media” value in data set [1] (aqueous media) is recorded as “unstable”.
With `OCc1ccc(O)cc1` [HBA, 4-hydroxybenzyl alcohol], the increase in hatch result in data set [2] (1 μmol/ml pre-treatment with HBA prior to PRD exposure) is listed as “approximately 60%”. For the same molecule, the “hatch enhancement, comparison of application rates” value in data set [2] (1 μmol/ml versus 2, 4, 8 μmol/ml) is on record as “enhanced hatch of Globodera pallida more effectively than higher rates tested”. In addition, the “increase in Globodera pallida egg hatch compared to non-treated control” value in data set [2] (2-week exposure in soil mix, then hatched in potato root diffusate (PRD)) is listed as 50%.
For `N#CS` [SCN^−, ionic thiocyanate], the “application rate causing inhibition of wheat germination” value in data set [3] is 342 kilograms SCN^−/ha. In addition, in data set [4], the “rate at which cotton defoliation was possible” value is 8.6 kilograms SCN^−/ha. The “rate necessary for complete plant kill” value in data set [5] (for 4 months) is recorded as 1,366 kg SCN^−/ha. Further, the “rate removing a large percentage of the weeds” value in data set [5] (in vivo) is listed as 137 kilograms SCN^−/ha.
